US7795207B2, “Lipopeptide compositions” (priority 2005, dated 2010)
In brackets after ≈: the same amount, converted by molar mass.

Experiments:
fresh venal human blood = conditions: for Reduction of the hemolysis in %: lipopeptide 1,600 mg/l in presence of 2.5% SBE-β-CD
[1] = system: Streptococcus pneumoniae L3TV; experiment: Intranasal lung infection model in the mouse; assay type: in vivo; conditions: mice, total dose 20 mg/kg subcutaneously 1 and 4 hours after infection; SBE-β-CD:friulimicin B 2.5:1; Mann Whitney Test p=0.0159
Protocol: Herein, Ca2Cl2 friulimicin B serves as an example molecule for the antibiotics of the class of the lipopeptides and sulfobutylether-β-cyclodextrin (SBE-β-CD) as examples for modified β-cyclodextrins. Shown are the results of a study with an intranasal lung infection model in the mouse.
Female mice (CFW-1 (Harlan Winkelmann, Germany)) were infected intranasally with Streptococcus pneumoniae L3TV (1*10^6 CFU/mouse). 1 and 4 hours after the infection, the animals were subcutaneously administered a total dose of 20 mg Ca2Cl2 friulimicin B/kg with and without SBE-BCD (5%). 24-hours after the infection, a determination of the number of germs in the lung was performed by plating-out of a tissue disintegration on agar plates in a manner the person skilled in the art is familiar with.

canine blood = experiment: Hemolysis test with venal canine blood; assay type: cell-based; conditions: molar ratio SBE-β-CD:friulimicin B 2.5:1
Protocol: Ca2Cl2 friulimicin B was dissolved in 0.9% NaCl solution with and without addition of SBE-β-CD. In the batch with SBE-β-CD there was a molar ratio (SBE-β-CD:friulimicin B) of 2.5:1. […] Statements of the content of Ca2Cl2 friulimicin B (in mg/l) refer to the final concentrations of the free acid of the friulimicin B in the reaction batch. The statements of the molar ratio refer to the free acids of friulimicin B and SBE-β-CD, respectively.

Female mice (CFW-1) = experiment: Acute toxicity in mice after one-time iv administration; assay type: in vivo
Protocol: Female mice (CFW-1 (Harlan Winkelmann, Germany)) were administered once (iv) the Ca2Cl2 friulimicin B solutions with and without SBE-β-CD. The mortality rate of the animals within 24 hours was determined.

[2] = system: Staphylococcus aureus ATCC 29213; experiment: Minimum inhibitory concentration (agar dilution, CLSI); assay type: cell-based
Protocol: (§1) The effects of cyclodextrins on the antibiotic activity von Ca2Cl2 friulimicin B were investigated by in vitro experiments about the growth inhibition of Gram-positive bacteria. Herein, the minimum inhibitory concentration for the growth inhibition was determined by cultivation of the bacteria on nutritious agar (agar dilution) according to the CLSI (previously NCCLS) rules (National Committee for Clinical Laboratory Standards. 2003. Methods for dilution antimicrobial susceptibility tests for bacteria that grow aerobically; approved standard—6th ed. Document M7-A6. Clinical and Laboratory Standards Institute, Wayne, Pa., USA). Different molar mixture ratios of the lipopeptide Ca2Cl2 friulimicin B were tested with SBE-β-CD in Ca ions-adjusted Müller-Hinton medium. The Gram-positive strains tested for the cultivation methods were: • Staphylococcus carnosus ATCC 51365 {DSM 20501) • Staphylococcus aureus ATCC 29213 (DSM 2569) • Staphylococcus aureus ATCC 33592 (DSM 11729) • Staphylococcus epidermidis ATCC 12228 (DSM 1798)

[3] = system: Staphylococcus aureus ATCC 33592; experiment: as above; assay type: cell-based
Protocol: as §1

[4] = system: Staphylococcus carnosus ATCC 51365; experiment: as above; assay type: cell-based
Protocol: as §1

[5] = system: Staphylococcus epidermidis ATCC 12228; experiment: as above; assay type: cell-based
Protocol: as §1

E. faecalis ATCC 29212 = experiment: Minimum inhibitory concentration in presence of HSA; assay type: cell-based, Enterococcus faecalis
[6] = literature (Oleson et al. 2000); cited from earlier work
[7] = literature; cited from earlier work
[8] = molar ratio Friulimicin:SBE-β-CD 1:0
[9] = molar ratio Friulimicin:SBE-β-CD 1:2.5
[10] = molar ratio Friulimicin:SBE-β-CD 1:4

## CCC(C)CCCCCC=CCC(=O)NC(CC(=O)O)C(=O)NC1C(=O)N2CCCCC2C(=O)NC(C(C)C(=O)O)C(=O)NC(CC(=O)O)C(=O)NCC(=O)NC(CC(=O)O)C(=O)NCC(=O)NC(C(C)N)C(=O)NC(C(C)C)C(=O)N2CCCC2C(=O)NC1C (stereo not drawn) [Amphomycin, reference compound]
Fresh venal human blood
  Reduction of the hemolysis in %: 99.6%

## CCCCCCCCCCCCCCCCCC(=O)NC(CC(N)=O)C(=O)NC1C(=O)N2CCCCC2C(=O)NC(C(C)C(=O)O)C(=O)NC(CC(=O)O)C(=O)NCC(=O)NC(CC(=O)O)C(=O)NCC(=O)NC(C(C)N)C(=O)NC(C(C)C)C(=O)N2CCCC2C(=O)NC1C (stereo not drawn) [CBS000203]
Fresh venal human blood
  Reduction of the hemolysis in %: 41.3%

## CCCCC/C=C\C/C=C\C/C=C\CCCCC(=O)NC(CC(N)=O)C(=O)NC1C(=O)N2CCCCC2C(=O)NC(C(C)C(=O)O)C(=O)NC(CC(=O)O)C(=O)NCC(=O)NC(CC(=O)O)C(=O)NCC(=O)NC(C(C)N)C(=O)NC(C(C)C)C(=O)N2CCCC2C(=O)NC1C (stereo not drawn) [CBS000204]
Fresh venal human blood
  Reduction of the hemolysis in %: 87.0%

## CC(C)C1NC(=O)C(C(C)N)NC(=O)CNC(=O)C(CC(=O)O)NC(=O)CNC(=O)C(CC(=O)O)NC(=O)C(C(C)C(=O)O)NC(=O)C2CCCCN2C(=O)C(NC(=O)C(CC(N)=O)NC(=O)c2ccc(CCc3ccc(CCc4ccccc4)cc3)cc2)C(C)NC(=O)C2CCCN2C1=O (stereo not drawn) [CBS000217]
Fresh venal human blood
  Reduction of the hemolysis in %: 99.5%

## CC(C)CCCCCCC/C=C\CC(=O)N[C@@H](CC(N)=O)C(=O)N[C@@H]1C(=O)N2CCCC[C@@H]2C(=O)N[C@@H]([C@H](C)C(=O)O)C(=O)N[C@@H](CC(=O)O)C(=O)NCC(=O)N[C@@H](CC(=O)O)C(=O)NCC(=O)N[C@H]([C@H](C)N)C(=O)N[C@@H](C(C)C)C(=O)N2CCC[C@H]2C(=O)N[C@@H]1C [Ca2Cl2 friulimicin B, friulimicin B]
[1]
  Antibiotic effect (number of germs in the lung 24 hours after infection), with vs without SBE-β-CD: increases the antibiotic effect
Canine blood; friulimicin B 800 mg/l
  Reduction of the hemolysis by the addition of SBE-β-CD: 55%
Canine blood; friulimicin B 5,000 mg/l
  Reduction of the hemolysis by the addition of SBE-β-CD: 100%
Female mice (CFW-1); 300 mg/kg iv once, with addition of SBE-β-CD (molar ratio 2.5:1)
  Mortality rate within 24 hours: 0% (0/3)
Female mice (CFW-1); 300 mg/kg iv once, without addition of SBE-β-CD
  Mortality rate within 24 hours: 0% (0/3)
Female mice (CFW-1); 350 mg/kg iv once, without addition of SBE-β-CD
  Mortality rate within 24 hours: 66% (2/3)
Female mice (CFW-1); 400 mg/kg iv once, with addition of SBE-β-CD (molar ratio 2.5:1)
  Mortality rate within 24 hours: 0% (0/3)
Female mice (CFW-1); 400 mg/kg iv once, without addition of SBE-β-CD
  Mortality rate within 24 hours: 100% (3/3)
Fresh venal human blood
  Effect of HP-β-CD on the induced hemolysis: suppress
[2]; [8]
  Antibiotic activity (MIC): 0.5 µg/mL
[2]; [9]
  Antibiotic activity (MIC): 0.5 µg/mL
[2]; [10]
  Antibiotic activity (MIC): 0.5 µg/mL
[3]; [8]
  Antibiotic activity (MIC): 1 µg/mL
[3]; [9]
  Antibiotic activity (MIC): 1 µg/mL
[3]; [10]
  Antibiotic activity (MIC): 1 µg/mL
[4]; [8]
  Antibiotic activity (MIC): 0.5 µg/mL
[4]; [9]
  Antibiotic activity (MIC): 0.5 µg/mL
[4]; [10]
  Antibiotic activity (MIC): 0.5 µg/mL
[5]; [8]
  Antibiotic activity (MIC): 0.5 µg/mL
[5]; [9]
  Antibiotic activity (MIC): 0.5 µg/mL
[5]; [10]
  Antibiotic activity (MIC): 0.5 µg/mL

## CC(C)CCCCCCC/C=C\CC(=O)N[C@@H](CC(N)=O)C(=O)N[C@@H]1C(=O)N2CCCC[C@@H]2C(=O)N[C@@H]([C@H](C)C(=O)O)C(=O)N[C@@H](CC(=O)O)C(=O)NCC(=O)N[C@@H](CC(=O)O)C(=O)NCC(=O)N[C@H]([C@H](C)N)C(=O)N[C@@H](C(C)C)C(=O)N2CCC[C@H]2C(=O)N[C@@H]1C [Na2 friulimicin B, friulimicin B]
E. faecalis ATCC 29212; medium addition 0% HSA
  MIC value: 4 µg/mL
E. faecalis ATCC 29212; medium addition 4% HSA
  MIC value: >64 µg/mL
[2]; medium addition 0% HSA
  MIC value: 2 µg/mL (≈ 1.53 µM)
[2]; medium addition 4% HSA
  MIC value: 8 µg/mL (≈ 6.14 µM)

## CCCCCCCCCC(=O)N[C@@H](Cc1c[nH]c2ccccc12)C(=O)N[C@H](CC(N)=O)C(=O)N[C@@H](CC(=O)O)C(=O)N[C@@H]1C(=O)NCC(=O)N[C@@H](CCCN)C(=O)N[C@@H](CC(=O)O)C(=O)N[C@H](C)C(=O)N[C@@H](CC(=O)O)C(=O)NCC(=O)N[C@H](CO)C(=O)N[C@@H]([C@H](C)CC(=O)O)C(=O)N[C@@H](CC(=O)c2ccccc2N)C(=O)O[C@@H]1C [daptomycin]
[6]
  Toxicity on the skeletal muscle: damages the skeletal muscle

## iturin A
[7]
  Hemolytic action: act in a hemolytic manner

## lichenysin
[7]
  Hemolytic action: act in a hemolytic manner

## surfactin A
[7]
  Hemolytic action: act in a hemolytic manner
